Reference: ChEMBL document CHEMBL1201862, “PubChem BioAssay data set” (2004)
Active and inactive are the calls of the source.

Experiments:
Vero = Vero cell cytotoxicity, cytotoxicity control for flavivirus capping enzyme inhibitors (AID 588742); type: functional; settings: Chlorocebus sabaeus
Protein Tat = Protein Tat (Human immunodeficiency virus type 1 group M subtype B (isolate HXB2)(HIV-1), UniProt P04608); type: functional;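 note: tat binding to TAR RNA read out by fluorescence polarization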
Estrogen receptor = target: T1, Estrogen receptor (Homo sapiens, UniProt P03372);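 note: potency for inhibiting coactivator peptide recruitment to the receptor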
T1 sequence (P03372 whole entry): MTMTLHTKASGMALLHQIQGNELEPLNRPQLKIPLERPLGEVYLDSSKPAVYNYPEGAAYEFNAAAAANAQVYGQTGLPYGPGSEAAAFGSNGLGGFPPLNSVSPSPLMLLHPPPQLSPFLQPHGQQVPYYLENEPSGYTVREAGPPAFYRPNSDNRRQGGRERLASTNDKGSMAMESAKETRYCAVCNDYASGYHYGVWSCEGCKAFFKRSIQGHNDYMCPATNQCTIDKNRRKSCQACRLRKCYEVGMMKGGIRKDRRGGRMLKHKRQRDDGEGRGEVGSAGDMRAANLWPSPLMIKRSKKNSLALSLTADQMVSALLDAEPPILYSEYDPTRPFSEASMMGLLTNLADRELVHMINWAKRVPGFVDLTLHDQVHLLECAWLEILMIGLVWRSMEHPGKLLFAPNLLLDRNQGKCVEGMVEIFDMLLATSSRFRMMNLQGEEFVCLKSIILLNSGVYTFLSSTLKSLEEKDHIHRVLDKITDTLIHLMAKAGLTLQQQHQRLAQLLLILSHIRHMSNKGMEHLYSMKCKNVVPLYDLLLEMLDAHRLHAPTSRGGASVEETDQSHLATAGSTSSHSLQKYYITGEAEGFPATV

Estrogen receptor beta = Estrogen receptor beta (Homo sapiens, UniProt Q92731);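 note: recombinant ER-beta bound to coactivator SRC1 peptide in presence of estradiol agonist; inhibitors block coactivator peptide binding and lower the FRET signal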
[1] = THP-1 cell cytotoxicity, dose response, cytotoxicity control for Vif-APOBEC3G degradation inhibitor project, THP-1 cells (AID 1117359); type: functional; settings: Human immunodeficiency virus 1, THP-1
[2] = inhibitors of Vif binding to APOBEC3G peptide, primary screen, biochemical, TR-FRET, GST-Vif 1-94, biotin-A3G peptide, dose response retest (AID 1117319); type: functional;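 note: TR-FRET signal of purified GST-Vif binding a biotinylated A3G peptide; inhibitors lower the FRET signal by blocking Vif and A3G binding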
[3] = inhibitors of intracellular T. cruzi replication, confirmation, NIH3T3 host cells, beta-gal luminescence (AID 2044); type: functional, cell-based;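 note: intracellular parasites grown in NIH/3T3 mouse fibroblasts as host cells; luminescent beta-galactosidase reporter signal from transgenic T. cruzi replicating inside host cells; inhibitors lower the luminescence signal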
[4] = cytotoxicity toward NIH3T3 fibroblasts, dose response, counter-screen, cell-based, ATP luminescence, mouse fibroblasts (AID 2010); type: functional;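 note: cells exposed to compound for about 90 hours before reading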
[5] = Vero cell cytotoxicity, dose response, cytotoxicity control for Vif-APOBEC3G degradation inhibitor project, Vero cells (AID 1117358); type: functional; settings: Human immunodeficiency virus 1, Vero
[6] = Concentration-dependent survival of SW480 colon cancer line, luminescence detection with CellTiter-Glo, half-maximal inhibitory concentration (AID 1117338); type: functional
[7] = RKO cell viability reduction, dose response, CellTiter-Glo luminescence (AID 1117322); type: functional
[8] = cytotoxicity toward HCT116 cells – cell-based, CellTiter-Glo luminescence, IC50, dose response (AID 1117332); type: functional; settings: HCT-116
[9] = SNU-C1 cell viability reduction, dose response, CellTiter-Glo luminescence (AID 1117323); type: functional, cell-based
[10] = cytotoxicity toward Colo320 cells – cell-based, CellTiter-Glo luminescence, IC50, dose response (AID 1117334); type: functional; settings: COLO 320
[11] = cytotoxicity toward HT-29 cells – cell-based, CellTiter-Glo luminescence, IC50, dose response (AID 1117330); type: functional
[12] = CellTiter-Glo luminescent dose response of DLD-1 viability loss (AID 1117352); type: functional
[13] = HCT116 cell viability decrease, GSK3B pretreatment – CellTiter-Glo, IC50, dose response (AID 1117339); type: functional; settings: HCT-116
[14] = target: Heat shock protein HSP 90-alpha (Homo sapiens, UniProt P07900); assay: Luminescence-based dose response biochemical high throughput screening assay for inhibitors of the Heat Shock Protein 90 (HSP90). [Related pubchem assays: 1831 (Summary AID.), 1846 (Confirmation screen.), 1789 (Primary screen.)]
Protein skinhead-1 = target: T2, Protein skinhead-1 (Caenorhabditis elegans, UniProt P34707); type: functional
T2 sequence (P34707 whole entry): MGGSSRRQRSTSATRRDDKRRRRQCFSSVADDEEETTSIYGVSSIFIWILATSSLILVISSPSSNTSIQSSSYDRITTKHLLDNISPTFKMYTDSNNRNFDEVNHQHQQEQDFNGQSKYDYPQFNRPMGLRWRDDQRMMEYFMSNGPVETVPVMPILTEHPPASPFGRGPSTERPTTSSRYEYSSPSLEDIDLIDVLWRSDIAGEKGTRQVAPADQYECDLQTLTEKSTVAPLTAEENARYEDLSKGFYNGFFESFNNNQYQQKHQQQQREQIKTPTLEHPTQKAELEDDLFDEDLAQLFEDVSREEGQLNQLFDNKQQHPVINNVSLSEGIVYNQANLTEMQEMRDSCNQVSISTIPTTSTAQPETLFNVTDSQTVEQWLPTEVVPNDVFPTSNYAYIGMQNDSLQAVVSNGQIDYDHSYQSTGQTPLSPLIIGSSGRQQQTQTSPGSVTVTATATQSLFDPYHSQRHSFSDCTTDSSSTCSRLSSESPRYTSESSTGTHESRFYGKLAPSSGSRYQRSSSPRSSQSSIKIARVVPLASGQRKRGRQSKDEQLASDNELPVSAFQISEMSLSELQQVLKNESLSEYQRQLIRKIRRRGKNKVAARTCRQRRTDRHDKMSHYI

Paired box protein Pax-8 = Paired box protein Pax-8 (Homo sapiens, UniProt Q06710); assay: inhibitors of PAX8-driven TPO luciferase reporter, dose response, RMG-I cells, cherry-pick (AID 687027); type: functional, cell-based;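 note: luciferase reporter driven by Pax8 target thyroperoxidase promoter measured by SteadyGlo luminescence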
[15] = PAX2 cell-based inhibition, dose response, selectivity assay for PAX8 inhibitor project, plate reader, dry powder samples (AID 743048); type: functional;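 note: HEK293 cells carrying a WT1 promoter luciferase reporter driven by expressed Pax2; potency is for inhibition of Pax2 driven reporter signal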
[16] = NIH:OVCAR-3 ovarian cancer cell cytotoxicity, dose response, PAX8 inhibitor project, plate reader, dry powder samples (AID 743044); type: functional, cell-based
[17] = PAX5 activity inhibitors, dose response, selectivity assay for PAX8 inhibitor project, cell-based, plate reader, dry powder samples (AID 743047); type: functional;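 note: HEK293 cells carrying a Pax5 driven CD19 promoter luciferase reporter; potency of inhibitors that lower reporter luminescence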
[18] = cytotoxicity in OV-90 ovarian cancer cells, dose response, PAX8 inhibitor project, cell-based, plate reader, dry powder, SA8 (AID 743149); type: functional
[19] = cytotoxicity dependent on PAX8, dose response, cell-based, plate reader, dry powder (AID 743049); type: functional
[20] = target: T3, Voltage-gated N-type calcium channel alpha-1B subunit/Amyloid beta A4 precursor protein-binding family A member 1 (Homo sapiens, UniProt Q00975+Q02410); type: protein assay
[21] = target: T3, Voltage-gated N-type calcium channel alpha-1B subunit/Amyloid beta A4 precursor protein-binding family A member 1; type: protein assay; remark: listed apart in the source
Cytochrome P450 2C19 = Cytochrome P450 2C19 (Homo sapiens, UniProt P33261); assay: Cytochrome panel assay with activity outcomes. Panel member name: p450-cyp2c19 Compounds with AC50 equal or less than 10 uM are considered active; type: functional; settings: read-out: AC50
[22] = target: 26S proteasome non-ATPase regulatory subunit 14 (Homo sapiens, UniProt O00487); assay: inhibition of proteasome subunit RPN11 – biochemical, fluorescence polarization, uHTS hits, confirmation (AID 602368); type: functional
[23] = target: 72 kDa type IV collagenase (Homo sapiens, UniProt P08253); assay: Dose Response validation of uHTS RPN11 inhibitor hits using a MMP-2 Fluorescence assay.; type: functional
Prothrombin = Prothrombin (Bos taurus, UniProt P00735); assay: thrombin inhibition, dose response, biochemical, fluorescence polarization, uHTS hits (AID 602369); type: functional
Fibrinogen beta chain [24] = target: T4, Fibrinogen beta chain (Homo sapiens, UniProt P02675); assay: Fluorescence polarization-based biochemical high throughput dose response assay to identify inhibitors that disrupt the binding of a cyclic peptide (Tn6) to the fibrin proteolytic product D-Dimer and fragment E complex [DD(E )].
Fibrinogen beta chain [25] = target: T4, Fibrinogen beta chain; assay: Fluorescence polarization-based biochemical high throughput dose response assay to identify inhibitors that disrupt the binding of a cyclic peptide (Tn7) to the fibrin proteolytic product D-Dimer and fragment E complex [DD(E )].
Cytochrome P450 3A4 = Cytochrome P450 3A4 (Homo sapiens, UniProt P08684);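 note: CYP3A4 tested as one member of a cytochrome P450 panel screen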
[26] = Dose-response inhibition of insulin secretion in a rat insulinoma line at 5 mM glucose (AID 1117331); type: functional, cell-based; settings: INS-1E

T3 sequence (Q00975 whole entry): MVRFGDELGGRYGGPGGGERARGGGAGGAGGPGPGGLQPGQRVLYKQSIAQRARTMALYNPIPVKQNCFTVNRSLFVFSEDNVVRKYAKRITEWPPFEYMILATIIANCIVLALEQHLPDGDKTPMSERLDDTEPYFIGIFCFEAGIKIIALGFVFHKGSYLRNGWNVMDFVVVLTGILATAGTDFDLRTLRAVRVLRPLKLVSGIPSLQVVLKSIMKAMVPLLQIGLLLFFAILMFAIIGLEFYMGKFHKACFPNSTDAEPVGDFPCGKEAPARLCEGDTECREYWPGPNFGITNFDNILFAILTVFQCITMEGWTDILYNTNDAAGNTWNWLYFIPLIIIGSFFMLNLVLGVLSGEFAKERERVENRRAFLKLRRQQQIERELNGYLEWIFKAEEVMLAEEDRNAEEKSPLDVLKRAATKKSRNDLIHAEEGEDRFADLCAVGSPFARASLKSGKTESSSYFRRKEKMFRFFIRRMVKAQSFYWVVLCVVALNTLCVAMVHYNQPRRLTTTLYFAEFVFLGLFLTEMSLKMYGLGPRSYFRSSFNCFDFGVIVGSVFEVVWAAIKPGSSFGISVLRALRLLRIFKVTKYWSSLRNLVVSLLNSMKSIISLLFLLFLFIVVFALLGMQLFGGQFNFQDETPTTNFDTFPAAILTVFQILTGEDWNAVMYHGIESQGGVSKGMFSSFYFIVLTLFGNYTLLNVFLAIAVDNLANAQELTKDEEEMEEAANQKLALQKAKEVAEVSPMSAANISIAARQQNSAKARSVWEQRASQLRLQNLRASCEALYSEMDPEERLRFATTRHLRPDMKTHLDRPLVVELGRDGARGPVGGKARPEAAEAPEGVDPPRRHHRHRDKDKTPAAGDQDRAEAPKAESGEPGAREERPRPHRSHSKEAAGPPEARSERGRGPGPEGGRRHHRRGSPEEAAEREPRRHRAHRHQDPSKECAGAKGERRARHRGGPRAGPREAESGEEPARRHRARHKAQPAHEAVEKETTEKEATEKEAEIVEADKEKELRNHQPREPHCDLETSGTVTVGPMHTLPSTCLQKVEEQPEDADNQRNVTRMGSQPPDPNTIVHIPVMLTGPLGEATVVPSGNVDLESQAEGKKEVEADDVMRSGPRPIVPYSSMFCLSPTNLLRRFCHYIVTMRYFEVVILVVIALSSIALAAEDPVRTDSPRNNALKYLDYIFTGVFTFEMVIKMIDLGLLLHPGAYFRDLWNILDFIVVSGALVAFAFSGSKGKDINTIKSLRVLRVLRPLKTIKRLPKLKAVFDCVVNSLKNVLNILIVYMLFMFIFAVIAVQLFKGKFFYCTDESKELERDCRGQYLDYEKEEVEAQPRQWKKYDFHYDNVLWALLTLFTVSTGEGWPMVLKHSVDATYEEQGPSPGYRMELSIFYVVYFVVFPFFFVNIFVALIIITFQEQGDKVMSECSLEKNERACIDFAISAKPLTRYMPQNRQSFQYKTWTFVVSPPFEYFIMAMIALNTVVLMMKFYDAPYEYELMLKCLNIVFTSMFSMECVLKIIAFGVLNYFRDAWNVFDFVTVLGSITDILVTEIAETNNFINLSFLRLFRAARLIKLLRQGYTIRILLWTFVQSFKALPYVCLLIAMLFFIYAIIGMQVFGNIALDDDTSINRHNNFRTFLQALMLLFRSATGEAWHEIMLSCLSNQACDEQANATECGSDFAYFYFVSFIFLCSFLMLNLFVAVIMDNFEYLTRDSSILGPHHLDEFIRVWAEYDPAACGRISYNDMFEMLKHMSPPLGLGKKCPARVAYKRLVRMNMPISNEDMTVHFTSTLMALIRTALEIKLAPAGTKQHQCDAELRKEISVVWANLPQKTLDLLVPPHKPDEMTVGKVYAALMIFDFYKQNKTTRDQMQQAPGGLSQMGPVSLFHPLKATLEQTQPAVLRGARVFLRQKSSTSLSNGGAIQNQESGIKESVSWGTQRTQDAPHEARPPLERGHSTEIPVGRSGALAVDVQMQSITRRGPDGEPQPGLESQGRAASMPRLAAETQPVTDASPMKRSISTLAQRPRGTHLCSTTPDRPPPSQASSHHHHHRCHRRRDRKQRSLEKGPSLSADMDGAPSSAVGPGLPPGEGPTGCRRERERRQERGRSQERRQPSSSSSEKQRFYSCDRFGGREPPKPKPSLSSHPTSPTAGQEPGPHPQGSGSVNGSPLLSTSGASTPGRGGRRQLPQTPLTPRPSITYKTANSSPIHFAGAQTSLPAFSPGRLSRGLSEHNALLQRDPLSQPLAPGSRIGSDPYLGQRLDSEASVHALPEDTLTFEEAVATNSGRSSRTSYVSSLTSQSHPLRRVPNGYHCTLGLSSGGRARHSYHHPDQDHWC
T3 sequence (Q02410 whole entry): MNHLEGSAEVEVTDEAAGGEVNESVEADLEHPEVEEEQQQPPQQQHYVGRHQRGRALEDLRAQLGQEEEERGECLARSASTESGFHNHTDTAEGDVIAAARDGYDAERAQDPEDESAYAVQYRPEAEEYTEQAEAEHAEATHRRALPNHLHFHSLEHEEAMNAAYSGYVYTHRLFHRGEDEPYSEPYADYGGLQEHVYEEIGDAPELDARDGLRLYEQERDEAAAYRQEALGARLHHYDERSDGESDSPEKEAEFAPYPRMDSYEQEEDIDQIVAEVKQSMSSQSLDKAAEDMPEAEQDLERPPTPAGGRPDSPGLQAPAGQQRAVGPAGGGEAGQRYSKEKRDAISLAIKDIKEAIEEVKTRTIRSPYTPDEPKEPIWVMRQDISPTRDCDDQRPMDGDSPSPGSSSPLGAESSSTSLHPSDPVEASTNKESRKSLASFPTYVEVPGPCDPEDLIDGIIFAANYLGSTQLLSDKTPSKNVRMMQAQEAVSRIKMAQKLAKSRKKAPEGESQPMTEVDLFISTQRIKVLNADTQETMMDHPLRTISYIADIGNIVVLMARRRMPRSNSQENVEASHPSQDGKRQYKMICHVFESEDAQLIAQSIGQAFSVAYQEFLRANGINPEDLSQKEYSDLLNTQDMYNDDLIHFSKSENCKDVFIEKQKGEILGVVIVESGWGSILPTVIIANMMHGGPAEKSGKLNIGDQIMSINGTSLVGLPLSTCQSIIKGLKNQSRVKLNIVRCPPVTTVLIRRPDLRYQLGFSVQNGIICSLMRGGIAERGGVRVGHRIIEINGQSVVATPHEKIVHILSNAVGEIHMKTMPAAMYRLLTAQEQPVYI
T4 sequence (P02675 whole entry, the tested form may be a part): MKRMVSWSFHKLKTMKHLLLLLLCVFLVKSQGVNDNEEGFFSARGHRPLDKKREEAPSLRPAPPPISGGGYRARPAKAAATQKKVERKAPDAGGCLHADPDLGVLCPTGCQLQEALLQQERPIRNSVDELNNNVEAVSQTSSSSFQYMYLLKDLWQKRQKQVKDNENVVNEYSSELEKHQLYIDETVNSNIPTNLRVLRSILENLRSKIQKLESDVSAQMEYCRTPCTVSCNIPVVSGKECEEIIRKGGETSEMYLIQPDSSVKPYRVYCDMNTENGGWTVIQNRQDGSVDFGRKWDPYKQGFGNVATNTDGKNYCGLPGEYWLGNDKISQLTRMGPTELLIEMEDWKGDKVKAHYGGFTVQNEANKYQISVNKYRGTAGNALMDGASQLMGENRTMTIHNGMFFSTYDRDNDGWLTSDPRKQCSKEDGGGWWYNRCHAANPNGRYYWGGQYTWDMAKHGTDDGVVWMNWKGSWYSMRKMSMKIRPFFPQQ
Sequence of 72 kDa type IV collagenase (P08253 whole entry): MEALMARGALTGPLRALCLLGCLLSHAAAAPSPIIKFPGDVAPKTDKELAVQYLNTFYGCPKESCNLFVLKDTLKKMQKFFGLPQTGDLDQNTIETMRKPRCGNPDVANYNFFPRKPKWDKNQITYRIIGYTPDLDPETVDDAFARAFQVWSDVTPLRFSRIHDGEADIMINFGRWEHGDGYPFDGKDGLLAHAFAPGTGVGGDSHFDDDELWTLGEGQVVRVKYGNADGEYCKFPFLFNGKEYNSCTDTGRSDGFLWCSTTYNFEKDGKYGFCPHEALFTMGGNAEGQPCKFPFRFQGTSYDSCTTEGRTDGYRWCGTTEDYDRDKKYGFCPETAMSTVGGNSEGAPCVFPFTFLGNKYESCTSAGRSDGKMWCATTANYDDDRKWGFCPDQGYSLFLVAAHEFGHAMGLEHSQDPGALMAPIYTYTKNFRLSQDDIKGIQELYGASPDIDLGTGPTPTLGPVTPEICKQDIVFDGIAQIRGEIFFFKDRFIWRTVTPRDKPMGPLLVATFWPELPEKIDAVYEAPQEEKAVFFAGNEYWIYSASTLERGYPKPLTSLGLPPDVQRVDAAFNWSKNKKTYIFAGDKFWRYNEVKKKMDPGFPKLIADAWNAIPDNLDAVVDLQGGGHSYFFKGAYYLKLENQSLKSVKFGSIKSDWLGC
Sequence of Protein Tat (P04608 whole entry): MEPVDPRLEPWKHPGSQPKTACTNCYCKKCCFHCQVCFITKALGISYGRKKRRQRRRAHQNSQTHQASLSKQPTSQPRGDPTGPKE
Sequence of Cytochrome P450 2C19 (P33261 whole entry): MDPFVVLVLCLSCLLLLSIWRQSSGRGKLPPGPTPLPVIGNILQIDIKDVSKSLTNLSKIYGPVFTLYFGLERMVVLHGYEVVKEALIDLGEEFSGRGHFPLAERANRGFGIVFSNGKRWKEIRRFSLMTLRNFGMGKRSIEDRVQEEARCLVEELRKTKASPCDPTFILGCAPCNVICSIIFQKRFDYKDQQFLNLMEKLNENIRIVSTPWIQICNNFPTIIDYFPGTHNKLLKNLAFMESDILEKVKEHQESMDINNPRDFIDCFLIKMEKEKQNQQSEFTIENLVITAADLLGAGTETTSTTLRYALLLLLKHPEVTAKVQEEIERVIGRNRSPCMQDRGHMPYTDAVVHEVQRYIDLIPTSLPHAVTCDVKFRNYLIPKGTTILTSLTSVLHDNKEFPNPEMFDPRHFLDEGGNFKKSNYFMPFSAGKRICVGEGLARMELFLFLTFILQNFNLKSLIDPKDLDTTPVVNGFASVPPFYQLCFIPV

## COC(=O)C1=C(O)/C(=C\c2ccc(CNC(=O)C(=O)Nc3ccc(C)cc3)o2)N=C1C
Vero
  CC50: 19 µM (active)
Protein Tat
  IC50: 22.5 µM (inconclusive)

## CSc1ccc(C2C(C#N)=C(N)Oc3c2ccc(=O)c2c(C)oc(C)c32)cc1 (stereo not given)
Estrogen receptor
  IC50: > 50 µM (not active)
Estrogen receptor beta
  IC50: > 50 µM (not active)
[1]
  CC50: > 40 µM (active)
[2]
  IC50: > 53.2 µM (active)

## CN(C)S(=O)(=O)c1ccc(NC(=O)N2CCN(c3cccc(C(F)(F)F)c3)CC2)cc1
[3]
  EC50: 3.61 µM (active)
[4]
  EC50: > 60 µM (not active)
[5]
  CC50: > 40 µM (active)

## COc1ccc2c(c1)c1c3n2CCN(C)C3=NCC1 [METRALINDOLE]
[6]
  IC50: > 20 µM (inactive)
[7]
  IC50: > 20 µM (inactive)
[8]
  IC50: > 20 µM (inactive)
[9]
  IC50: > 20 µM (inactive)
[10]
  IC50: > 20 µM (inactive)
[11]
  IC50: > 20 µM (inactive)
[12]
  IC50: > 20 µM (inactive)
[13]
  IC50: > 20 µM (inactive)

## Cc1oc(-c2ccc(-c3ccccc3)cc2)nc1CN(C)C1CCOC1 (stereo not given)
[14]
  IC50: 0.235 µM (active)
Protein skinhead-1
  IC50: 13.7 µM (active)

## CC(=O)N1CCOc2ccc(S(=O)(=O)N3CCN(c4cccc(C(F)(F)F)c4)CC3)cc21
Paired box protein Pax-8
  AC50: 2.36 µM (active)
[15]
  AC50: 30.9 µM (active)
[16]
  AC50: 17.9 µM (active)
[17]
  AC50: 45.3 µM (active)
[18]
  AC50: 63 µM (active)
[19]
  AC50: 94.5 µM (active)

## NS(=O)(=O)c1ccc(NS(=O)(=O)c2ccc(NC(=O)c3ccc(-c4ccccc4)cc3)cc2)cc1
[20]
  IC50: 12.1 µM (active)
[21]
  IC50: > 50 µM (inactive)
Cytochrome P450 2C19
  AC50: 0.562 µM (inconclusive)
[22]
  IC50: 6.71 µM (active)
[23]
  IC50: > 100 µM (inactive)
Prothrombin
  IC50: 33.4 µM (active)
Fibrinogen beta chain [24]
  IC50: 14.3 µM (inactive)
Fibrinogen beta chain [25]
  IC50: > 83.3 µM (inactive)
Cytochrome P450 3A4
  AC50: inconclusive

## CN1CCN(CCC(=O)N2c3ccccc3Sc3ccc(C(F)(F)F)cc32)CC1 [FTORMETAZINE]
[26]
  IC50: > 11.1 µM (inactive)
